Experimental data taken from patent publication US11478445B2, “Method for treating acute myeloid leukemia” (Bionomics Limited, priority 2017, dated 2022).
“Also recorded” adds a separate entry of the source.

Columns and labels:
Assay type in all cases: cell-based
AML cell lines [1] = test: Cytotoxicity (CellTox Green) and viability/proliferation (CellTiter-Blue) assays
Description: The cell lines were plated in 96-well plates (black with clear flat bottom, Costar, 3603) at 2×10^4 cells/well in 50 uL of respective media, containing 0.1% DMSO and CellTox Green reagent (Promega, G8742) at a final dilution of 1/500. Cells were plated in triplicate wells for each dose being tested. EX 1 was reconstituted immediately prior to use at 10 mM in DMSO. The drug was prepared 2× concentrated in media containing 0.1% DMSO and 50 uL added to respective wells. Fluorescence (485-500 nmEx/520-530 nmEm) was measured at 24 h and 48 h with a FLOUstar OPTIMA plate reader (BMG Labtech). After the cytotoxicity measurement at 48 h, 20 μL of CellTiter-Blue reagent (Promega, G8080) was added to each well and the plate incubated for 1 h at 37° C. before fluorescence (560Ex/590Em) was measured with a FLOUstar OPTIMA plate reader (BMG Labtech).
The first experiment was performed with HL60 and MOLM13 cell lines. Cells were expanded and when numbers were adequate (and viability higher than 90%) they were plated in 96-well plates at 2×10^4 cells/well in 50 uL of their respective media, containing 0.1% DMSO and CellTox Green reagent. Doses tested ranged from 1 μM followed by serial 1/10 dilutions until 10^−5 nM EX 1, or vehicle only. Plates were cultured and fluorescence (indicating cytotoxicity) was measured at 24 h and 48 h. After the cytotoxicity was read at 48 h, CellTiter-Blue reagent was added to each well. The readout of this assay is based on the metabolic activity of cells and it is used as surrogate marker for proliferation and/or cell viability.
The next experiment was performed with the cell lines ME1, OCI-AML3, MV4; 11 and KG1 following the same protocol as above. From the results from the previous experiment it was observed that the non-linear curve fit was very steep between 1 nM and 0.1 nM (FIGS. 1A and B); thus, for this and the subsequent experiments the drug doses were adjusted to: […], 10 nM, 1 nM, 0.75 nM, 0.5 nM, 0.25 nM, 0.1 nM, 0.01 nM and 0.001 nM. […] Cytotoxicity and proliferation (metabolic assay) were measured as above. […]

AML cell lines [2] = test: Total ROS assay (CM-H2DCFDA, flow cytometry)
Description: 1.25×10^5 cells were harvested into 5 mL tubes and washed with PBS. […] All tubes were incubated at 37° C. for 20 min and then cells washed 3 times with PBS. Cells were resuspended in 300 μL PBS and analysed on an LSRFortessa (BD Biosciences) flow cytometer. Results were analysed with FCS Express 4 Flow Research Edition software (De Novo Software).
(§1) For that, cells were plated at 10^6 cells/mL and treated with vehicle (DMSO) alone or a range of doses of EX 1 (0.1 nM, 1 nM, 10 nM and 100 nM) for 6 h, 8 h and 24 h. Cells were harvested for detection of ROS and superoxide anion (O2^·−) levels at 6 h and 24 h, for protein extraction at 8 h and 24 h, and for cell cycle analysis at 24 h.
Total ROS levels were measured by flow cytometry using the fluorogenic dye CM-H2DCFDA at a final concentration of 5 μM. Mitochondria superoxide anion (O2^·−) levels were measured by flow cytometry using MitoSox, also at a final concentration of 5 μM.

AML cell lines [3] = test: Cell cycle assay (PI staining)
Description: 2×10^5 cells were harvested into 5 mL tubes and washed 3 times with PBS. Cell pellets were resuspended in 300 μL of cold PBS while vortexing. Next, cells were permeabilised with 700 μL of cold (−20° C.) 100% ethanol added dropwise while vortexing at slow speed. Cell suspensions were incubated on ice for 30 min, centrifuged at 300 g for 10 min and cell pellets resuspended in 100 μL PI solution (0.1% Triton X-100, 100 μg/mL DNAse-free RNAse A-Sigma, and 40 µg/mL PI in PBS). Cell suspensions were incubated at 37° C. for 30 min in the dark. 200 μL of PBS was added to each tube before analysis on an LSRFortessa (BD Biosciences) flow cytometer. Results were analysed with FCS Express 4 Flow Research Edition software (De Novo Software).
as §1
Therefore, cell cycle analysis was performed by PI staining in the cell lines after 24 h of treatment with a range of doses of EX 1, as described above.

`COc1cc(C(=O)c2c(C)oc3c(O)c(OC)ccc23)cc(OC)c1OC` [EX 1, 2-Methyl-7-hydroxy-3-(3,4,5-trimethoxybenzoyl)-6-methoxybenzofuran] was tested, and the “cytotoxicity and CellTiter response” value (AML cell lines [1]; less sensitive cell lines ME1, OCI-AML3 and KG1) was “showed a lower cytotoxicity response”, the “cytotoxicity and inhibitory proliferation response” value (AML cell lines [1]; more sensitive cell lines HL60, MOLM13 and MV4;11) was “reached the highest cytotoxicity and showed the largest inhibitory proliferation response” and the IC50 (AML cell lines [1]; range over six AML cell lines (MV4;11, MOLM13, HL60, KG1, ME1, OCI-AML3), 48 h, FIGS. 1A and B, read-out: IC50 doses (cytotoxicity and viability)) was 0.2 to 1.3 nM. For the same compound, the “total ROS levels” value (AML cell lines [2]; OCI-AML3, 24 h) was “dose response reduction in total ROS”, the “total ROS levels” value (AML cell lines [2]; the other cell lines (not OCI-AML3), 6 h and 24 h) was “none of the other cell lines showed any changes in total ROS levels” and the “cell cycle distribution (G2/M)” value (AML cell lines [3]; HL60, KG1, OCI-AML3 and ME1, 24 h) was “G2/M cell cycle arrest”. For the same compound, the sub-G0 cell population (AML cell lines [3]; KG1 and HL60, 24 h) was “marked increases in the sub-G0 cell population; also recorded: increase in sub-G0 population starting at treatment with 10 nM”, the “percentage of cells in G2/M and G1” value (AML cell lines [3]; MV4;11 and MOLM13, 24 h) was “dose-dependent reduction” and the “sub-G0 population (apoptosis)” value (AML cell lines [3]; MV4;11 and MOLM13, 24 h) was “underwent apoptosis as evidenced by the increase in sub-G0 population”. The “cell cycle distribution (sub-G0, G2/M)” value (AML cell lines [3]; MV4;11 and MOLM13, 24 h, 10 nM) was “marked apoptosis induction (sub-G0 gate) and G2/M reduction”.
